Biological target: Human recombinant DHX9 protein (Homo sapiens (Human), UniProt Q08211)
Assay: DHX9 ATPase assay (ADP-Glo)
Type: biochemical
Details: for IC50: read-out: DHX9 Biochemical Inflection Point

Human recombinant DHX9 protein, sequence (Q08211 whole entry): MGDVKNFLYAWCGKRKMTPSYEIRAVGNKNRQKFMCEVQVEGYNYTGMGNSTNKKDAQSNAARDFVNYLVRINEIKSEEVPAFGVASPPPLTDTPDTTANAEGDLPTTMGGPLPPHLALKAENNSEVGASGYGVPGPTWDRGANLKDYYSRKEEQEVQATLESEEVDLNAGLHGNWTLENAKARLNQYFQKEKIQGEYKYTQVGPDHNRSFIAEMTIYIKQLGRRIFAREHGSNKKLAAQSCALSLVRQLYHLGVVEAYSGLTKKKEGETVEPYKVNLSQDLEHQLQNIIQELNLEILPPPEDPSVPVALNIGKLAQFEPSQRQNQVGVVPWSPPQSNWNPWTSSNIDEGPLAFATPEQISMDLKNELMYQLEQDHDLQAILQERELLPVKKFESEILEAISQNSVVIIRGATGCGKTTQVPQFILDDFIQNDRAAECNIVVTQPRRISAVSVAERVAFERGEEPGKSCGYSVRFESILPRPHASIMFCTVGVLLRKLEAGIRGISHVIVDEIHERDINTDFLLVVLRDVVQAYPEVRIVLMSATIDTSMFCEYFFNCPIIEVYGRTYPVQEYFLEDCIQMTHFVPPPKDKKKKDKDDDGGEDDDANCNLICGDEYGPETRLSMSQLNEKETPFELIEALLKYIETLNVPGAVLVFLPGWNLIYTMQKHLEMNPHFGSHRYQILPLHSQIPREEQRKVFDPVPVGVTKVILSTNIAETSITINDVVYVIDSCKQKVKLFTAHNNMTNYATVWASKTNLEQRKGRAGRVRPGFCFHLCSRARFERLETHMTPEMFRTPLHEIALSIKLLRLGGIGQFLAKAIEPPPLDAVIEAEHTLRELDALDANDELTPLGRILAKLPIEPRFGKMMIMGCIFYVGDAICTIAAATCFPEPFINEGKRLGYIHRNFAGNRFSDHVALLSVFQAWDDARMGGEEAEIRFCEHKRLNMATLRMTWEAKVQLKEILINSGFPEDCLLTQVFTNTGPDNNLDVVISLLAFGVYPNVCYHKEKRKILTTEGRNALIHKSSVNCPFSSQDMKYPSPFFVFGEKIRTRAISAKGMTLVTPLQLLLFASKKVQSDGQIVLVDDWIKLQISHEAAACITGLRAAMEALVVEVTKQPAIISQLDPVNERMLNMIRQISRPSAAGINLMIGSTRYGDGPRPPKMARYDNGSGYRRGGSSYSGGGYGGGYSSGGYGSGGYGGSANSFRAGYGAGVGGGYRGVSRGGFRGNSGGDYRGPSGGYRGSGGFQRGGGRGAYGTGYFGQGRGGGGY

DHX9 Biochemical Max Inhibition | IC50 [nM] | SMILES
63.2% | 138 | CS(=O)(=O)Nc1cc(Cl)cc(NC(=O)c2cnn([C@H]3CCC[C@H](O)C3)c2)c1 (single isomer, unassigned) [Example 152a]
69.9% | 126 | CS(=O)(=O)Nc1cc(Cl)cc(NC(=O)c2cnn([C@H]3CCC[C@@H](O)C3)c2)c1 (single isomer, unassigned) [Example 152b]
69.2% | – | CS(=O)(=O)Nc1cc(Cl)cc(NC(=O)c2cnn([C@H]3CCC[C@H]3Oc3ccccc3)c2)c1 (single isomer, unassigned) [Example 259]
50% | – | CS(=O)(=O)Nc1cc(Cl)cc(NC(=O)c2cnn([C@H]3CCC[C@H]3c3ccccc3)c2)c1 (single isomer, unassigned) [Example 260]
70.6% | 127 | CS(=O)(=O)Nc1cc(Cl)cc(NC(=O)c2cnn([C@@H]3CC[C@H]3O)c2)c1 (single isomer, unassigned) [Example 306a]
74.2% | 253 | CS(=O)(=O)Nc1cc(Cl)cc(NC(=O)c2cnn([C@H]3CC[C@H]3O)c2)c1 (single isomer, unassigned) [Example 306b]
71.5 | 241 | Cc1sc(C(=O)Nc2cc(Cl)cc(NS(C)(=O)=O)c2)cc1-c1ncccc1OC(C)c1cc(F)cc(F)c1 (single isomer, unassigned) [Example 632]
71.2 | 52.6 | Cc1sc(C(=O)Nc2cc(Cl)cc(NS(C)(=O)=O)c2)cc1-c1ncccc1OC(C)c1cc(F)cc(F)c1 (single isomer, unassigned) [Example 633]
48.3% | 320 | CS(=O)(=O)Nc1cc(Cl)cc(NC(=O)c2cn(-c3ccccc3)cn2)c1 [Example 1, N-(3-chloro-5-(methylsulfonamido)phenyl)-1-phenyl-1H-imidazole-4-carboxamide]
64.8% | 173 | CS(=O)(=O)Nc1cc(F)cc(NC(=O)c2c[nH]c(Br)c2)c1 [Example 2]
76.4% | 648 | Cc1cc(C(=O)Nc2cc(F)cc(NS(C)(=O)=O)c2)n[nH]1 [Example 3]
64.1% | 4820 | CS(=O)(=O)Nc1cc(F)cc(NC(=O)c2cc(Br)[nH]n2)c1 [Example 4]
74.6% | 215 | Cc1cc(C(=O)Nc2cc(F)cc(NS(C)(=O)=O)c2)c[nH]1 [Example 5]
52.5% | 91.7 | CS(=O)(=O)Nc1cc(Cl)cc(NC(=O)c2c[nH]c(-c3ccccc3)n2)c1 [Example 6]
46.4% | 380 | CS(=O)(=O)Nc1cc(Cl)cc(NC(=O)c2cc(-c3ccccc3)co2)c1 [Example 7]
54.4% | 395 | CS(=O)(=O)Nc1cc(Cl)cc(NC(=O)c2cc(-c3ccccc3)c[nH]2)c1 [Example 8]
44.5% | 390 | CS(=O)(=O)Nc1cc(Cl)cc(NC(=O)c2nc(-c3ccccc3)c[nH]2)c1 [Example 9]
61% | 133 | Cc1ccc(C(=O)Nc2cc(Br)cc(NS(C)(=O)=O)c2)cc1-n1cccn1 [Example 10]
62.7% | 123 | Cc1sc(C(=O)Nc2cc(Cl)cc(NS(C)(=O)=O)c2)cc1-c1ccccc1 [Example 11]
58.6% | 84700 | CS(=O)(=O)Nc1cc(Br)cc(NC(=O)C2CCC2c2ccccc2)c1 (stereo not drawn) [Example 12]

SMILES | DHX9 Biochemical Max Inhibition | IC50 [nM]
CS(=O)(=O)Nc1cc(Cl)cc(NC(=O)c2cnn([C@@H]3CCCC[C@H]3O)c2)c1 (relative stereo) [Example 150, N-(3-chloro-5-(methylsulfonamido)phenyl)-1-(trans-2-hydroxycyclohexyl)-1H-pyrazole-4-carboxamide] | 65.9% | –

— US20240316047A1, “INHIBITORS OF RNA HELICASE DHX9 AND USES THEREOF” (ACCENT THERAPEUTICS, INC., priority 2022, published 2024)
